Data set [1] can be described thus: Molar enthalpy of transition or fusion. The conditions noted are these: Crystal; DSC.
The conditions of data set [2]: Crystal; DTA.

Each structure is given as a SMILES string. Numbers after ± are expanded uncertainties.

As to `c1ccc2c(c1)-c1ccccc1-2` [biphenylene], the “Molar enthalpy of transition or fusion” value in data set [1] was 5.4 ± 0.359 kcal/mol. In addition, in data set [2], the Normal melting temperature stood at 112.2 ± 1.1 °C.

(Values after the NIST ThermoML archive (doi:10.1021/je800300x).)
